Read-outs that look alike come from different tables or passages of the source. Peptide text beside a SMILES is read from it.
Columns and labels:
Type in all cases: cell-based
APJ receptor = target: T1, APJ receptor (Homo sapiens, UniProt P35414); experiment: Cellul'erk ERK phosphorylation assay in APJ-TREX cells; set-up: expressed in transfected cells; host or cells: Human TRex (APJ-TREX) cells, doxycycline-inducible expression; details: relative to max pyr-apelin-13 activity at 100 nM; 3 or 0.3 μM compound, 5 minutes
T1 sequence (P35414 1-380): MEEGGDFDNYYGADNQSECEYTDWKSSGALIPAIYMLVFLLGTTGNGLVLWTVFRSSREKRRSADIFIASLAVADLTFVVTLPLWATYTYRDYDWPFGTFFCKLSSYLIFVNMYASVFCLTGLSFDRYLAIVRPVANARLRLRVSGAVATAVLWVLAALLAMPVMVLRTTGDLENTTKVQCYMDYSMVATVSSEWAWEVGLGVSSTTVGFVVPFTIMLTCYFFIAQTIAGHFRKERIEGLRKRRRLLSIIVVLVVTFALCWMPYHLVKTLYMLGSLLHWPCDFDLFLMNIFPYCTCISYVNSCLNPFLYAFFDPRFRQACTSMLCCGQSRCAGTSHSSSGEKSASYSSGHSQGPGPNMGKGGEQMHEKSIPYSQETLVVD
Description: Experiments were performed to test activation of the ERK and p38 pathways using the Cellul'erk and the Phospho-p38 MAPK (Thr180/Tyr182) assay kits (Cisbio). APJ-TREX cells were optimized for signaling (pre-serum starved overnight with low FBS serum (2% FBS media) with 1 ng/ml doxycyclin (for induction of APJ receptor expression), 50,000 cells, 5 minutes agonist activation for ERK activity). Cells were pretreated with 3 or 0.3 μM pepducin compound for 5 minutes and the reaction was stopped by lysis buffer. Lysates are then transferred to the assay plate for the detection of phosphorylated ERK or p38 by HTRF reagents.

rat peritoneal cells = experiment: Ex vivo histamine release assay in rat peritoneal cells (vs. Compound 48/80)
How it was run: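 Resident peritoneal cells were lavaged from male Sprague Dawley rats and kept in HBSS/20 mM HEPES/0.2% BSA at 25,000 cells/well. They were exposed for 30 min at room temperature to compound at 3 points (100, 10, 1 μM DMSO stocks, 1% DMSO final). Released histamine was measured by HTRF and normalised to total histamine after Triton lysis. Compound 48/80 was the reference.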

CXCR4 receptor = CXCR4 receptor (Homo sapiens, UniProt P61073); experiment: Activity at CXCR4 receptor (selectivity, Gi-coupled GPCR); details: FIGS. 6A-6C, selectivity vs. hAPJ
Chain of CXCR4 receptor (P61073 whole entry): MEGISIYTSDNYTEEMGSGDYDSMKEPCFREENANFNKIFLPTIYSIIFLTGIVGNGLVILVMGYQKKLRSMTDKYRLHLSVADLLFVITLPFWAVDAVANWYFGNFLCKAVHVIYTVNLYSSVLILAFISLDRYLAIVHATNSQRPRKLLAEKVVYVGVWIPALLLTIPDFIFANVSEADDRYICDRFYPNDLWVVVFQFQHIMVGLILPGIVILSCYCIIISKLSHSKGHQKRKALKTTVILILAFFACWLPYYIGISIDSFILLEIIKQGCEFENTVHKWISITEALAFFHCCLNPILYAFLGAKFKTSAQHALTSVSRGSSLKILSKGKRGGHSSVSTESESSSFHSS

[1] = target: T2, human APJ receptor (hAPJ) (Homo sapiens, UniProt P35414); experiment: HTRF cAMP assay: inhibition of NKH477-stimulated cAMP in HEK cells stably expressing hAPJ; details: for Emax: HEK293, read-out: % IA, bound stated; for % IA (cAMP inhibition, hAPJ HEK): intrinsic activity; for Ranking: composite class of EC50 (hAPJ), % IA and % histamine or formal (+) charge; for inhibition of NKH477-stimulated increase in cAMP, dose dependent: concentration response curves, FIGS. 1 and 2, HEK cells stably expressing APJ
T2 construct: expressed in transfected cells
T2 sequence (P35414 1-380): T1 sequence (P35414 1-380)
How it was run: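 HEK cells stably expressing hAPJ, induced with 1 nG/mL doxycycline and seeded overnight at 40 k/well. cAMP read by HTRF competitive immunoassay using cryptate-labeled anti-cAMP antibody and d2-labeled cAMP.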

[2] = HTRF cAMP Assay, per data of Table 6
[3] = HTRF cAMP Assay, per data of Table 6, read-out: EC50 (hAPJ), inhibition of cAMP production, bound stated
[4] = Table 6, hAPJ HEK cells, NKH477-stimulated cAMP, read-out: EC50 (cAMP inhibition, hAPJ HEK)

Average % Activity (ERK agonist activity) (APJ receptor) [%]	Histamine (% vs. 48/80) (rat peritoneal cells) [%]	activity at the CXCR4 receptor (CXCR4 receptor)	Emax [1, 2] [%]	EC50 [1, 3] [nM]	EC50 [1, 4] [nM]	% IA (cAMP inhibition, hAPJ HEK) ([1]; Table 6, hAPJ HEK cells) [%]	inhibition of NKH477-stimulated increase in cAMP, dose dependent [1]	SMILES	Ranking [1]
51.8	9	lack of dose-responsive activity	≥ 80	≤ 25	12	97	inhibited	CCCCCCCCCCCCCCCC(=O)N[C@@H](CC(=O)O)C(=O)N[C@H](C(=O)N[C@@H](Cc1ccccc1)C(=O)N[C@@H](CCC(N)=O)C(=O)N[C@@H](CO)C(=O)N[C@@H](CO)C(=O)N[C@@H](CCC(=O)O)C(=O)N[C@H](CCCCN)C(=O)N[C@@H](CCCNC(=N)N)C(=O)N[C@@H](CCCNC(=N)N)C(=O)N[C@@H](CO)C(=O)N[C@@H](C)C(=O)N[C@@H](CC(=O)O)C(=O)N[C@@H](CCC(N)=O)C(=O)N[C@@H](Cc1ccccc1)C(=O)N[C@H](C(N)=O)[C@@H](C)CC)C(C)C [Compound 12] (HELM PEPTIDE1{[CCCCCCCCCCCCCCCC(=O)[*:2]].D.V.F.Q.S.S.E.[dK].R.R.S.A.D.Q.F.I.[am]}$$$$V2.0)	***** (EC50≦25 nM (hAPJ), % IA≧80% and either % histamine≦35% or formal (+) charge≦1)
44.0	17	lack of dose-responsive activity	≥ 80	≤ 25	6	96	inhibited	CCCCCCCCCCCCCCCC(=O)N[C@@H](CC(=O)O)C(=O)N[C@H](C(=O)N[C@@H](Cc1ccccc1)C(=O)N[C@@H](CCCNC(=N)N)C(=O)N[C@@H](CO)C(=O)N[C@@H](CO)C(=O)N[C@@H](CCC(=O)O)C(=O)N[C@H](CCCCN)C(=O)N[C@@H](CCCNC(=N)N)C(=O)N[C@@H](CCCNC(=N)N)C(=O)N[C@@H](CO)C(=O)N[C@@H](C)C(=O)N[C@@H](CC(=O)O)C(=O)N[C@@H](CCC(N)=O)C(=O)N[C@@H](Cc1ccccc1)C(=O)N[C@H](C(N)=O)[C@@H](C)CC)C(C)C [Compound 13] (HELM PEPTIDE1{[CCCCCCCCCCCCCCCC(=O)[*:2]].D.V.F.R.S.S.E.[dK].R.R.S.A.D.Q.F.I.[am]}$$$$V2.0)	***** (EC50≦25 nM (hAPJ), % IA≧80% and either % histamine≦35% or formal (+) charge≦1)
